Results taken from US20130331427A1, “METHODS OF STIMULATING CELLULAR GROWTH, SYNAPTIC, REMODELING AND CONSOLIDATION OF LONG-TERM MEMORY” (Blanchette Rockefeller Neuroscience Institute, priority 2007, published 2013).
Read-outs that look alike come from different tables or passages of the source.

Experiments:
PKC [1] = details: cited from earlier work
PKC [2] = details: [3H]phorbol dibutyrate competition; read-out: Ki for binding; cited from earlier work
CA1 neurons = experiment: acute hippocampal slices, number of dendritic spines (spinophilin); assay type: cell-based; details: PKC blocker
NCI 60 cell line screen = details: cited from earlier work
Hermissenda Crassicornis = experiment: Pavlovian conditioning of Hermissenda, memory retention; assay type: in vivo
Procedure: Specimens of Hermissenda Crassicornis were maintained in artificial sea water (ASW) at 15° for three days in perforated 50-ml conical centrifuge tubes before starting experiments. […] For selected experiments lactacysteine (10 μM) or anisomycin was added to the ASW.
Pavlovian conditioning of Hermissenda involves repeated pairings of a neutral stimulus, light, with an unconditioned stimulus, orbital shaking. (See, Lederhendler et al. (24) and Epstein et al. (6)). A rotation/shaking stimulus excites the statocyst hair cells and thereby elicits an unconditioned response: a brisk contraction of the muscular undersurface called a foot, accompanied by adherence or “clinging” to the surface that supports the foot. Before conditioning, light elicits a weakly positive phototaxis accompanied by lengthening of the foot. After sufficient light-rotation pairings, light no longer elicits phototaxis, but instead elicits a new response (24): the “clinging” and foot shortening previously elicited only by the unconditional stimulus (FIG. 1). Thus, the meaning of the unconditioned stimulus, rotation or orbital shaking, has been transferred to the conditioned stimulus and is manifested by a light-elicited foot contraction—a negative change of foot length. This conditioned response to light can last for weeks, is not produced by randomized light and rotation, is stimulus-specific, and shares the other defining characteristics of mammalian Pavlovian Conditioning.
Pavlovian conditioning of Hermissenda has well-defined training parameters that produce progressively longer-lasting retention of the learned conditioned response. Two training events (2 TE) of paired light and orbital shaking (see “Methods”), for example, induce a learned conditioned response (light-elicited foot contraction or shortening) that persists without drug treatment for approximately 7 minutes. Four to six training events (4-6 TE) induce a conditioned response that persists up to several hours, but disappears approximately by 1 day after training. Nine TE produces long-term associative memory lasting many days and often up to two weeks.
All animals were tested with the CS alone at 4 h, then at 24-h intervals.

calexcitin = calexcitin immunostaining in Hermissenda B-photoreceptors; assay type: in vivo
Procedure: Following experimental treatments and testing, animals were rapidly decapitated, the central nervous systems (CNS) removed and then fixed in 4% para-formaldehyde in 20 mM Tris-buffered (pH 8) natural seawater (NSW; 0.2 μm micropore-filtered). The CNSs were then embedded in polyester wax (20), sectioned (6 μm) and immunostained using a biotinylated secondary antibody coupled to avidin-bound microperoxidase (ABC method, Vector), Aminoethylcarbazole (AEC) was used as the chromogen. The primary polyclonal antibody (designated 25U2) was raised in rabbits from the full length calexcitin protein extracted from squid optic lobes. Gray-scale intensity measures were done from digital photomicrographs on circumscribed cytoplasmic areas of the B-photoreceptors minus the same background area (non-staining neuropile).
Micrographs (A, B) depict representative tissue sections from Hermissenda eyes that were immunolabeled with the calexcitin polyclonal antibody, 25U2. […] Differences in staining intensities were measured and recorded as gray-scale intensities (0-256; B-cell cytoplasm minus tissue background).

PKC [3] = experiment: PKC activity (histone phosphorylation) in Hermissenda nervous systems; assay type: in vivo; details: anisomycin 1.0 ng/ml with each bryostatin 0.25 ng/ml exposure, three successive days
Procedure: Cells were homogenized by sonication (5 sec, 25 W) in 100 μl of 100 mM Tris-HCL pH 7.4 buffer containing 1 mM EGTA, 1 mM PMSF, and 50 mM NaF. Homogenate was transferred to a polyallomer centrifuge tube and was centrifuged at 100,000×g for 10 min at 4°. The supernatant was removed and immediately frozen on dry ice. The particulate fraction was resuspended by sonication in 100 μl of the same buffer and stored at −80°. To measure PKC, 10 μl of cytosol or particulate fraction was incubated for 15 min at 37° in the presence of 10 μM histones, 4.89 mM CaCl2, 1.2 μg/μl phosphatidyl-L-serine, 0.18 μg/μl 1.2-dioctanoyl-sn-glycerol, 10 mM MgCl2, 20 mM HEPES (pH 7.4), 0-8 mM EDTA, 4 mM EGTA, 4% glycerol, 8 μg/ml aprotinin, 8 μg/ml leupeptin, and 2 mM benzamidine. 0.5 μCi [γ^32-P]ATP was added and ^32P-phosphoprotein formation was measured by adsorption onto phosphocellulose as described previously (25). This assay was used with slight adjustments for either Hermissenda nervous system homogenates or cultured mammalian neuron homogenates.
Histone phosphorylation (See “Methods”) in isolated circumesophageal nervous systems was then measured in the cytosol fraction. […] (FIG. 12, 13).

[4] = test system: squamous cell carcinoma and melanoma; details: used topically; cited from earlier work
[5] = 2000 IU/day; cited from earlier work
Rat IGF-IR cells = experiment: overall protein synthesis, [35S]methionine incorporation; details: PKC inhibitor also present
Procedure: [^35S]Methionine (9.1 μCi) was then added to the medium followed by analysis of radiolabel.

protein kinase C = details: (−)-enantiomer; cited from earlier work
sAPP secretion = details: control and AD fibroblasts; cited from earlier work
[6] = test system: murine leukemias and solid tumors; details: cited from earlier work
PKC [7] = details: K562 cells; cited from earlier work
[8] = test system: cyclin dependent kinase 2 (Cdk2); details: at 5 ng/ml; cited from earlier work
PKC [9] = experiment: PKC affinity of bryostatin and bryologs; assay type: binding
Description: Structurally, they are all similar.

PKCε = molecular target: T1, PKCε (Homo sapiens, UniProt Q02156); details: cited from earlier work
T1 sequence (Q02156 1-737): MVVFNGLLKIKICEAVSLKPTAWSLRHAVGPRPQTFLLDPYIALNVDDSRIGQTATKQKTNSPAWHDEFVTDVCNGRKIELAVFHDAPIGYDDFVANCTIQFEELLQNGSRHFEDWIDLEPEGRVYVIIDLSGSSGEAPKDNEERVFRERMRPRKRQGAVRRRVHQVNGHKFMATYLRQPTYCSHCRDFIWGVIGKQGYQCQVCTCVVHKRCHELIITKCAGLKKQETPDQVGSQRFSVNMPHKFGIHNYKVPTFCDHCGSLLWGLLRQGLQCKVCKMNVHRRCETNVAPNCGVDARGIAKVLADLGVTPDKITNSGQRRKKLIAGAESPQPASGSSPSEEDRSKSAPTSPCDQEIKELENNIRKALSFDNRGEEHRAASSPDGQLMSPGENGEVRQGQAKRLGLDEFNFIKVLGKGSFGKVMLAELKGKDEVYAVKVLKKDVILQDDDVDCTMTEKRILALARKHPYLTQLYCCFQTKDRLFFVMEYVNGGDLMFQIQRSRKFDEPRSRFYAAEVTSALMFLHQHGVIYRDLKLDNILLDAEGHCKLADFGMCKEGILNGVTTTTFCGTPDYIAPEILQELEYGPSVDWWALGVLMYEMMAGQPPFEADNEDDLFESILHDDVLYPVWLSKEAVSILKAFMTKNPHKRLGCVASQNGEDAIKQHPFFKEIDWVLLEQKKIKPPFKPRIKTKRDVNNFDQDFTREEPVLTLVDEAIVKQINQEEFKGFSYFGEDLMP

[10] = A-ring bryologs, read-out: affinity for PKC

CCCCCCCC(=O)O[C@H]1/C(=C/C(=O)OC)C[C@H]2C[C@H](CO)OC(=O)C[C@H](O)CCOCC[C@@H]3CCO[C@H](/C=C/C(C)(C)[C@]1(O)O2)O3 [Analog 2]
affinity for PKC, in words (PKC [1]): maintains high affinity for PKC
Ki (PKC [1]; read-out: PKC Affin): 6.5 nM

CC1=C[C@]23C(=O)[C@@H](C=C(COC(=O)c4ccccc4)[C@@H](O)[C@]2(O)[C@H]1OC(=O)c1ccccc1)[C@H]1[C@@H](C[C@H]3C)C1(C)C [Ingenol 3,20-dibenzoate]
Ki (PKC [2]): 240 nM

CCCCCCCC(=O)OC1C(=CC(=O)OC)CC2CC(CO)OC(=O)CC(O)CCOC(CCCc3ccc(Br)cc3)CC3CCOC(C=CC(C)(C)C1(O)O2)O3 (stereo not drawn) [bryolog 5]
Ki (PKC [1]; [10]): 1.9 nM

COc1ccc2c(c[n+](C)c3c4cc5c(cc4ccc23)OCO5)c1OC [chelerythrine]
effect on bryostatin-induced ELAV transport and spine increase (CA1 neurons): suppressed

CC1=CC[C@H](C)C(C)(C)[C@@H]1/C=C/C(C)=C/CC[C@@]1(CO)[C@H](CCCO)/C(=C(/C)C=O)CC[C@]1(C)O [Iripallidal]
GI50 (concentration required to inhibit growth by 50%) (NCI 60 cell line screen): from micromolar to nanomolar range

COc1ccc(C[C@H]2NC[C@H](O)[C@H]2OC(C)=O)cc1 [anisomycin]
effect on memory retention produced by 9 TE (Hermissenda Crassicornis; 4 hour anisomycin treatment, no bryostatin): eliminated all memory retention
effect on memory from single 4 hour bryostatin exposure with 2 TE (Hermissenda Crassicornis; anisomycin 1.0 μg/ml): entirely eliminated
effect on long-term retention after three-day bryostatin treatments (Hermissenda Crassicornis; anisomycin 1 μg/ml for four hours post-training, 2-TEs): did not prevent long-term retention
effect on calexcitin level (calexcitin; anisomycin immediately after 2-paired TEs, 3 days of 4-hr bryostatin): did not reduce
effect on PKC activity, cytosolic and membrane fractions (PKC [3]): markedly reduced

C/C=C(/C)C(=O)O[C@H]1C(C)=C[C@]23C(=O)[C@@H](C=C(CO)[C@@H](O)[C@]12O)[C@H]1[C@@H](C[C@H]3C)C1(C)C [Ingenol-3-angelate]
antitumor activity [4]: possesses antitumor activity

vitamin E
cognitive abilities [5]: did not enhance cognitive abilities
mortality and morbidity [5]: reduced mortality and morbidity

CN(C)C[C@H]1CCn2c(c(C3=C(c4cn(C)c5ccccc45)C(=O)NC3=O)c3ccccc32)C1 [Ro-32]
effect on long-term memory induction (Hermissenda Crassicornis; Ro-32 immediately after bryostatin plus training): did not prevent long-term memory induction
effect on 6 TE plus bryostatin (Hermissenda Crassicornis; applied pre-training during dark adaptation): blocked
effect on learning-specific calexcitin increases in the Type B cell (calexcitin; in vivo): prevented
effect on bryostatin-induced increase of protein synthesis (Rat IGF-IR cells): partially blocked
effect on bryostatin-induced increase of protein synthesis (Rat IGF-IR cells; listed as Ro-32-0432): increasing significantly less

CCCCCCCCc1ccc2c3c(c[nH]c13)C[C@@H](CO)NC(=O)[C@H](C(C)C)N2C [octylindolactam V, Octylindolactam V]
EC50 (protein kinase C): 29 nM

CN[C@@H]1C[C@H]2O[C@@](C)([C@@H]1OC)n1c3ccccc3c3c4c(c5c6ccccc6n2c5c31)C(=O)NC4 [staurosporine]
effect on benzolactam-induced sAPP secretion (sAPP secretion): eliminated the effects of benzolactam

CCCCCCCC(=O)OC1C(=CC(=O)OC)CC2CC(CO)OC(=O)CC(O)CCOC(c3ccccc3)CC3CCOC(C=CC(C)(C)C1(O)O2)O3 (stereo not drawn) [bryolog 4]
Ki (PKC [1]; [10]): 2.3 nM

Cn1cc(C2=C(c3cn(CCCSC(=N)N)c4ccccc34)C(=O)NC2=O)c2ccccc21 [RO-31-8220]
effect on bryostatin-induced ELAV transport and spine increase (CA1 neurons): suppressed

CC(=O)N[C@@H](CSC(=O)[C@]1([C@@H](O)C(C)C)NC(=O)[C@H](C)[C@@H]1O)C(=O)O [Lactacysteine]
acquisition or retention of behavioral training (Hermissenda Crassicornis; lactacysteine 10 μM alone for 4 h, 2-paired TEs 24 hrs later): no acquisition or retention of behavioral training
memory after single bryostatin exposure followed by 2 TE (Hermissenda Crassicornis; lactacysteine 10 μM together with bryostatin 0.25 ng/ml for 4 h): long-term memory lasting many days

C=C(C)[C@]12C[C@@H](COC(=O)c3ccccc3)[C@@]34OC5(O[C@@H]1[C@@H]3C1O[C@]1(CO)[C@@H](O)[C@@]1(O)[C@H]4[C@@H](C(C)CCCCCC[C@@H]5O)C(C)[C@@H]1OC(=O)c1ccccc1)O2 (stereo partly drawn) [Gnidimacrin]
concentrations displaying potent antitumor activity [6]: 0.1 to 1 nM
concentration at which it acts as a PKC activator (PKC [7]): 0.3 nM
inhibition of Cdk2 [8]: 100%

CCCCCCCC(=O)O[C@H]1/C(=C/C(=O)OC)C[C@H]2C[C@H](CO)OC(=O)C[C@H](O)C[C@@H]3CCC[C@H](C[C@@H]4CCO[C@H](/C=C/C(C)(C)[C@]1(O)O2)O4)O3 [Analog 1]
potency relative to bryostatin-1 (PKC [9]): about 100 times
affinity for PKC, in words (PKC [1]): highest affinity for PKC
Ki (PKC [1]; read-out: PKC Affin): 0.25 nM

CCCCCCCC(=O)OC1C(=CC(=O)OC)CC2CC(CO)OC(=O)CC(O)CCOC(C(C)(C)C)CC3CCOC(C=CC(C)(C)C1(O)O2)O3 (stereo not drawn) [bryolog 3]
Ki (PKC [1]; [10]): 6.5 nM

CCCCCC1CC1CC1CC1CCCCCCCC(=O)O (stereo not drawn) [DCP-LA, 2-[(2-pentylcyclopropyl)methyl]cyclopropaneoctanoic acid]
concentration of maximal effect on PKCε (PKCε): 100 nM
